# Experimental data reported in patent publication US10617680B2 (CELGENE QUANTICEL RESEARCH, INC., priority 2017, dated 2020).
# Molecular target: CBP (Homo sapiens (Human), UniProt Q92793)
# Assay: In vitro CBP inhibition (AlphaScreen, biotinylated H4-tetraacetyl peptide)
# Assay type: binding
# Conditions: not given
# In short: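 His-tagged CBP expressed in E. coli (50 nM final) incubated with biotinylated H4K5/8/12/16(Ac) peptide (20 nM final) in 50 mM HEPES pH 7.3, 10 mM NaCl, 0.25 mM TCEP, 0.1% BSA, 0.005% Brij-35, 0.4% DMSO, 20 min at room temp.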
# Sequence of CBP (Q92793 1081-1197): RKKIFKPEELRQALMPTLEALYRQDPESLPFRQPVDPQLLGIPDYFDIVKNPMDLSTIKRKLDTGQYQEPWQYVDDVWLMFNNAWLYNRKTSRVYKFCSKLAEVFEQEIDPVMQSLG
row,Compound,IC50 [nM]
1,"Cn1cc(-c2cnn(CC3CC3)c2)c(-c2ccc(C#N)cc2)cc1=O [Example 156, 4-[5-(1-cyclopropyl-methyl-1H-pyrazol-4-yl)-1-methyl-2-oxo-1,2-dihydro-pyridin-4-yl]-benzonitrile]",500 to 5000

# Same assay, conditions: AlphaScreen, Table 29; read-out: CBP IC50
row,Compound,IC50 [nM]
1,"CC(C)COc1ccc(-c2cc(=O)n(C)cc2-c2cnn(-c3ccccc3C#N)c2)cn1 [Example 236, 2-[4-(6-Isobutoxy-1′-methyl-6′-oxo-1′,6′-dihydro-[3,4′]bipyridinyl-3′-yl)-pyrazol-1-yl]-benzonitrile]",< 500
2,"Cn1cc(-c2ncc(-c3ccccc3)o2)c(-c2ccccc2)cc1=O [Example 394, 1-methyl-4-phenyl-5-(5-phenyloxazol-2-yl)pyridin-2(1H)-one]",500 to 5000
3,"Cc1cc(-c2cnn(-c3cc(Oc4ccccc4)ccc3C(=O)O)c2)cn(C)c1=O [Example 259, 2-[4-(1,5-Dimethyl-6-oxo-1,6-dihydro-pyridin-3-yl)-pyrazol-1-yl]-4-phenoxy-benzoic acid]",> 5000
4,"COc1cc(-c2cc(=O)n(C)cc2-c2cnn(-c3ccccc3Cl)c2)ccn1 [Example 317, 5-(1-(2-chlorophenyl)-1H-pyrazol-4-yl)-2′-methoxy-1-methyl-[4,4′-bipyridin]-2(1H)-one]",< 500
5,"COc1ccc(-c2cc(=O)n(C)cc2-c2cnn(-c3ccccc3C(=O)O)c2)cn1 [Example 228, 2-[4-(6-Methoxy-1′-methyl-6′-oxo-1′,6′-dihydro-[3,4′]bipyridinyl-3′-yl)-pyrazol-1-yl]-benzoic acid]",< 500
6,"Cn1ccc(-c2cc(=O)n(C)cc2-c2cnn(-c3ccccc3Cl)c2)cc1=O [Example 314, 5-(1-(2-chlorophenyl)-1H-pyrazol-4-yl)-1,1′-dimethyl-[4,4′-bipyridine]-2,2′(1H,1′H)-dione]",< 500
7,"CCCOc1cc(=O)n(C)cc1-c1cnn(Cc2ccccc2)c1 [Example 165, 5-(1-Benzyl-1H-pyrazol-4-yl)-1-methyl-4-propoxy-1H-pyridin-2-one]",< 500
8,"COc1ccc(-c2cc(=O)n(C)cc2-c2cnn(-c3ccccc3C(=O)NC#N)c2)cc1 [Example 290, N-cyano-2-(4-(4-(4-methoxyphenyl)-1-methyl-6-oxo-1,6-dihydropyridin-3-yl)-1H-pyrazol-1-yl)benzamide]",< 500
9,"CNc1ncc(-c2cc(=O)n(C)cc2-c2cnn(-c3cccc(Cl)c3C#N)c2)cn1 [Example 332, 2-chloro-6-(4-(1-methyl-4-(2-(methylamino)pyrimidin-5-yl)-6-oxo-1,6-dihydropyridin-3-yl)-1H-pyrazol-1-yl)benzonitrile]",< 500
10,"Cn1cc(-c2cnn(-c3ccccc3C(=O)O)c2)c(-c2cccnc2)cc1=O [Example 227, 2-[4-(1′-Methyl-6′-oxo-1′,6′-dihydro-[3,4′]bipyridinyl-3′-yl)-pyrazol-1-yl]-benzoic acid]",< 500
11,"CCOC(=O)c1nn(Cc2ccccc2)cc1-c1cc(C)c(=O)n(C)c1 [Example 198, 1-Benzyl-4-(1,5-dimethyl-6-oxo-1,6-dihydro-pyridin-3-yl)-1H-pyrazole-3-carboxylic acid ethyl ester]",< 500
12,"CC(c1cccc(C#N)c1)n1cc(-c2ccc(=O)n(C)c2)cn1 (stereo not drawn) [Example 16, 3-(1-(4-(1-methyl-6-oxo-1,6-dihydropyridin-3-yl)-1H-pyrazol-1-yl)ethyl)benzonitrile]",500 to 5000
13,"Cn1cc(-c2cnn(-c3cccc(C4CC4)c3C#N)c2)c(-c2ccc(OCC3CC3)nc2)cc1=O [Example 391, 2-cyclopropyl-6-(4-(6-(cyclopropylmethoxy)-1′-methyl-6′-oxo-1′,6′-dihydro-[3,4′-bipyridin]-3′-yl)-1H-pyrazol-1-yl)benzonitrile]",< 500
14,"Cn1cc(-c2cnn(-c3ccccc3C(=O)NS(C)(=O)=O)c2)c(C2CC2)cc1=O [Example 302, N-{2-[4-(4-Cyclopropyl-1-methyl-6-oxo-1,6-dihydro-pyridin-3-yl)-pyrazol-1-yl]-benzoyl}-methanesulfonamide]",< 500
15,"CCc1ncc(-c2cc(=O)n(C)cc2-c2cnn(-c3cccc(Cl)c3C#N)c2)cn1 [Example 280, 2-chloro-6-(4-(4-(2-ethylpyrimidin-5-yl)-1-methyl-6-oxo-1,6-dihydropyridin-3-yl)-1H-pyrazol-1-yl)benzonitrile]",< 500
16,"CC(c1ccccc1)n1cc(-c2cc(N(C)C)c(=O)n(C)c2)cn1 (stereo not drawn) [Example 196, 3-Dimethylamino-1-methyl-5-[1-(1-phenyl-ethyl)-1H-pyrazol-4-yl]-1H-pyridin-2-one]",500 to 5000
17,"Cn1cc(-c2cnn(-c3cccc(F)c3C#N)c2)c(-c2ccc(N3CCCC3)nc2)cc1=O [Example 350, 2-fluoro-6-[4-[1-methyl-6-oxo-4-(6-pyrrolidin-1-yl-3-pyridyl)-3-pyridyl]pyrazol-1-yl]benzonitrile]",< 500

# Further lines, results first:
row,IC50 [nM],Compound
1,< 500,"Cn1cc(-c2cn[nH]c2)c(-c2ccccc2)cc1=O [Example 133, 1-methyl-4-phenyl-5-(1H-pyrazol-4-yl)pyridin-2(1H)-one]"
2,< 500,"Cn1cc(-c2cnn(Cc3ccccc3)c2)c(OCCC(F)(F)F)cc1=O [Example 92, 5-(1-benzyl-1H-pyrazol-4-yl)-1-methyl-4-(3,3,3-trifluoro-propoxy)pyridin-2(1H)-one]"
3,< 500,"Cn1cc(-c2cc(=O)n(C)cc2-c2cnn(-c3ccccc3-c3nnn[nH]3)c2)cn1 [Example 300, 1-Methyl-4-(1-methyl-1H-pyrazol-4-yl)-5-{1-[2-(1H-tetrazol-5-yl)-phenyl]-1H-pyrazol-4-yl}-1H-pyridin-2-one]"
4,< 500,"CCc1ccc(-c2cc(=O)n(C)cc2-c2cnn(-c3cccc(F)c3C#N)c2)cn1 [Example 372, 2-(4-(6-ethyl-1′-methyl-6-oxo-1′,6′-dihydro-[3,4′-bipyridin]-3′-yl)-1H-pyrazol-1-yl)-6-fluorobenzonitrile]"
5,< 500,"Cn1cc(-c2cnn(-c3ccccc3C#N)c2)c(OCCN2CCOCC2)cc1=O [Example 283, 2-(4-(1-methyl-4-(2-morpholinoethoxy)-6-oxo-1,6-dihydropyridin-3-yl)-1H-pyrazol-1-yl)benzonitrile]"
6,< 500,"Cn1cc(-c2cnn(-c3ccccc3-c3nnn[nH]3)c2)c(-c2ccc(Cl)cc2)cc1=O [Example 297, 5-(1-(2-(1H-tetrazol-5-yl)phenyl)-1H-pyrazol-4-yl)-4-(4-chlorophenyl)-1-methylpyridin-2(1H)-one]"
7,< 500,"CNc1ncc(-c2cc(=O)n(C)cc2-c2cnn(C(C)c3ccccc3)c2)cn1 (stereo not drawn) [Example 309, 1-methyl-4-(2-(methylamino)pyrimidin-5-yl)-5-(1-(1-phenylethyl)-1H-pyrazol-4-yl)pyridin-2(1H)-one]"
8,< 500,"Cc1c(-c2cnn(C(C)c3ccccc3)c2)cn(C)c(=O)c1C (stereo not drawn) [Example 30, 1,3,4-trimethyl-5-(1-(1-phenylethyl)-1H-pyrazol-4-yl)pyridin-2(1H)-one]"
9,< 500,"CC(C)Cn1cc(-c2cn(C)c(=O)cc2-c2ccccc2)cn1 [Example 137, 5-(1-isobutyl-1H-pyrazol-4-yl)-1-methyl-4-phenylpyridin-2(1H)-one]"
10,< 500,"Cn1cc(-c2cnn(Cc3ccccc3)c2)c(-c2cnn(C(F)F)c2)cc1=O [Example 160, 5-(1-benzyl-1H-pyrazol-4-yl)-4-(1-(difluoromethyl)-1H-pyrazol-4-yl)-1-methylpyridin-2(1H)-one]"
11,< 500,"CC(c1cccc(Cl)c1)n1cc(-c2ccc(=O)n(C)c2)cn1 (stereo not drawn) [Example 23, 5-(1-(1-(3-chlorophenyl)ethyl)-1H-pyrazol-4-yl)-1-methyl-pyridin-2(1H)-one]"
12,< 500,"Cn1cc(-c2cnn(-c3ccccc3C(=O)O)c2)c(C2CC2)cc1=O [Example 211, 2-[4-(4-Cyclopropyl-1-methyl-6-oxo-1,6-dihydro-pyridin-3-yl)-pyrazol-1-yl]-benzoic acid]"
13,< 500,"CC(C)c1ccc(-c2cc(=O)n(C)cc2-c2cnn(-c3cccc(F)c3C#N)c2)cn1 [Example 375, 2-fluoro-6-[4-[4-(6-isopropyl-3-pyridyl)-1-methyl-6-oxo-3-pyridyl]pyrazol-1-yl]benzonitrile]"
14,< 500,"C[C@H](c1ccccc1)n1cc(-c2cn(C)c(=O)cc2N2CCCC2)cn1 [Example 55, (R)-1-methyl-5-(1-(1-phenylethyl)-1H-pyrazol-4-yl)-4-(pyrrolidin-1-yl)pyridin-2(1H)-one]"
15,< 500,"Cn1cc(-c2cnn(-c3cccc(F)c3C#N)c2)c(-c2ccc(OCC3CC3)nc2)cc1=O [Example 360, 2-[4-[4-[6-(cyclopropylmethoxy)-3-pyridyl]-1-methyl-6-oxo-3-pyridyl]pyrazol-1-yl]-6-fluoro-benzonitrile]"
16,< 500,"CCOc1cc(=O)n(C)cc1-c1cnn(-c2cc(OC)ccc2C(=O)O)c1 [Example 247, 2-[4-(4-Ethoxy-1-methyl-6-oxo-1,6-dihydro-pyridin-3-yl)-pyrazol-1-yl]-4-methoxy-benzoic acid]"
17,< 500,"Cn1cc(-c2cnn(-c3cccc(C4CC4)c3C#N)c2)c(-c2ccc(OCCF)nc2)cc1=O [Example 387, 2-cyclopropyl-6-[4-[4-[6-(2-fluoroethoxy)-3-pyridyl]-1-methyl-6-oxo-3-pyridyl]pyrazol-1-yl]benzonitrile]"
18,< 500,"Cn1cc(-c2cnn(Cc3ccccc3)c2)c(N2CCCC2)cc1=O [Example 87, 5-(1-benzyl-1H-pyrazol-4-yl)-1-methyl-4-pyrrolidin-1-yl-1H-pyridin-2-one]"
19,< 500,"Cn1cc(-c2cnn(-c3ccccc3C(=O)NC#N)c2)c(-c2ccc(Cl)cc2)cc1=O [Example 291, 2-(4-(4-(4-chlorophenyl)-1-methyl-6-oxo-1,6-dihydropyridin-3-yl)-1H-pyrazol-1-yl)-N-cyanobenzamide]"
20,< 500,"Cc1cccc(C(C)n2cc(-c3ccc(=O)n(C)c3)cn2)c1 (stereo not drawn) [Example 20, 1-methyl-5-(1-(1-(m-tolyl)ethyl)-1H-pyrazol-4-yl)pyridin-2(1H)-one]"
21,< 500,"Cn1cc(-c2cn(C)c(=O)cc2C2CC2)cn1 [Example 144, 4-cyclopropyl-1-methyl-5-(1-methyl-1H-pyrazol-4-yl) pyridin-2(1H)-one]"
